From patent US20230312576A1, “4-(7H-PYRROLO[2,3-D]PYRIMIDIN-4-YL)-3,6-DIHYDROPYRIDINE-1-(2H)-CARBOXAMIDE DERIVATIVES AS LIMK AND/OR ROCK KINASES INHIBITORS FOR USE IN THE TREATMENT OF CANCER” (CENTRE NATIONAL DE LA RECHERCHE SCIENTIFIQUE, priority 2020, published 2023) come the findings set out here.

One test concerns the target LIMK1 (Homo sapiens (Human), UniProt P53667). Put plainly: Lanthascreen Eu binding assay (TR-FRET), inhibition of LIMK1. To be noted: Lanthascreen Eu binding assay.
In the next test the target is LIMK2 (Homo sapiens (Human), UniProt P53671). Briefly: Lanthascreen Eu binding assay (TR-FRET), inhibition of LIMK2. As to conditions: Lanthascreen Eu binding assay.
LIMK2, sequence (P53671 whole entry): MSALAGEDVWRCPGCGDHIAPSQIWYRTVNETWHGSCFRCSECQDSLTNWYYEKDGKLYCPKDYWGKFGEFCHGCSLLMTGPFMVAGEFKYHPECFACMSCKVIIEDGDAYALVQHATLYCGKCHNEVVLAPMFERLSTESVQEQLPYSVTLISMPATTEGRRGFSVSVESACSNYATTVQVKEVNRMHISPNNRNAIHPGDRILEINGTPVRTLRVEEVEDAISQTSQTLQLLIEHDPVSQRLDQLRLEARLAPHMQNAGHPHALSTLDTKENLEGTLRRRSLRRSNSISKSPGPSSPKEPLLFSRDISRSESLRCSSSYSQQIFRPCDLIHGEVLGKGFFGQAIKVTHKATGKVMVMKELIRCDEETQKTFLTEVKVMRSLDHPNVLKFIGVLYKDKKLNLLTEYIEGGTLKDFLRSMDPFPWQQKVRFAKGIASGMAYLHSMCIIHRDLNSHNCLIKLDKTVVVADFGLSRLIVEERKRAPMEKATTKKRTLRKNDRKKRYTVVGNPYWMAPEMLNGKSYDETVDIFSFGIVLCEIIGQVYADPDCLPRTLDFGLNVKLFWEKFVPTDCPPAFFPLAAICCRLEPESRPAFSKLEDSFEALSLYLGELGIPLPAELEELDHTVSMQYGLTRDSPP
The target in another test is ROCK1 (Homo sapiens (Human), UniProt Q13464). Briefly: Z'Lyte assay, ROCK1 inhibition at a single concentration. It is filed as biochemical.
ROCK1, sequence (Q13464 whole entry): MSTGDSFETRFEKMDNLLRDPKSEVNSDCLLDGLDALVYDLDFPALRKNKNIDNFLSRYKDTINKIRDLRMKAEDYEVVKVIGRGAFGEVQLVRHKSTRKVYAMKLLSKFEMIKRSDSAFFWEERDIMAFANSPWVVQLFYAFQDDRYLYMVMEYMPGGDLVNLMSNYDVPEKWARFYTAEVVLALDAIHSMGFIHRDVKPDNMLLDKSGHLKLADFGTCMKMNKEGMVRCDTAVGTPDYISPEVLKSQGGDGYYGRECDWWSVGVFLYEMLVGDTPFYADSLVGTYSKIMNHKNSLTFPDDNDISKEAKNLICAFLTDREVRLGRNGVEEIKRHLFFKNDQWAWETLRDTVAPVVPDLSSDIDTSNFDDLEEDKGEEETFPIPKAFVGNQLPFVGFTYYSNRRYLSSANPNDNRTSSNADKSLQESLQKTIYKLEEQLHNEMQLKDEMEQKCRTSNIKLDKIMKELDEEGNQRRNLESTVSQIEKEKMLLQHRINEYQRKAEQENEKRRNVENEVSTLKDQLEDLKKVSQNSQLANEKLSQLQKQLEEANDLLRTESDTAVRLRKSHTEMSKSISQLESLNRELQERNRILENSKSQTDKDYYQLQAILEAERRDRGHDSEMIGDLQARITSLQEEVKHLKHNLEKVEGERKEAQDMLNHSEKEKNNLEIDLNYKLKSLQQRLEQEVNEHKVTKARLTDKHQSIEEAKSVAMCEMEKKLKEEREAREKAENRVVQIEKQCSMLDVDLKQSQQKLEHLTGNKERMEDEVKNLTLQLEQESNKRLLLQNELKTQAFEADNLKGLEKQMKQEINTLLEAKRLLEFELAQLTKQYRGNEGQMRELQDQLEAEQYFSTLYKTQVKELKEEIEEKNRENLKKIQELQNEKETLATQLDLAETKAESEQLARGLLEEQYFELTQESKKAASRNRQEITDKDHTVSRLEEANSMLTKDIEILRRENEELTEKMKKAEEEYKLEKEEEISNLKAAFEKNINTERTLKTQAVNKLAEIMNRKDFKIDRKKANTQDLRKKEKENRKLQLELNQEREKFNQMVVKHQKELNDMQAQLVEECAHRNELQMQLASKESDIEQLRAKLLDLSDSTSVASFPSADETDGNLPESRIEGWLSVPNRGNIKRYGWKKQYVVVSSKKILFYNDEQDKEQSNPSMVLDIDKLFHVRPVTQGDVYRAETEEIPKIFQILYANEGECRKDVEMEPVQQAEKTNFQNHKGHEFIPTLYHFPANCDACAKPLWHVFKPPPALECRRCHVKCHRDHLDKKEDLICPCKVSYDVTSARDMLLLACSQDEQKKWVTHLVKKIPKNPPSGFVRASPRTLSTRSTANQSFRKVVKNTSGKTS
The target in a further test is ROCK2 (Homo sapiens (Human), UniProt O75116). Briefly: Z'Lyte assay, ROCK2 inhibition at a single concentration. It is filed as biochemical.
ROCK2, sequence (O75116 whole entry): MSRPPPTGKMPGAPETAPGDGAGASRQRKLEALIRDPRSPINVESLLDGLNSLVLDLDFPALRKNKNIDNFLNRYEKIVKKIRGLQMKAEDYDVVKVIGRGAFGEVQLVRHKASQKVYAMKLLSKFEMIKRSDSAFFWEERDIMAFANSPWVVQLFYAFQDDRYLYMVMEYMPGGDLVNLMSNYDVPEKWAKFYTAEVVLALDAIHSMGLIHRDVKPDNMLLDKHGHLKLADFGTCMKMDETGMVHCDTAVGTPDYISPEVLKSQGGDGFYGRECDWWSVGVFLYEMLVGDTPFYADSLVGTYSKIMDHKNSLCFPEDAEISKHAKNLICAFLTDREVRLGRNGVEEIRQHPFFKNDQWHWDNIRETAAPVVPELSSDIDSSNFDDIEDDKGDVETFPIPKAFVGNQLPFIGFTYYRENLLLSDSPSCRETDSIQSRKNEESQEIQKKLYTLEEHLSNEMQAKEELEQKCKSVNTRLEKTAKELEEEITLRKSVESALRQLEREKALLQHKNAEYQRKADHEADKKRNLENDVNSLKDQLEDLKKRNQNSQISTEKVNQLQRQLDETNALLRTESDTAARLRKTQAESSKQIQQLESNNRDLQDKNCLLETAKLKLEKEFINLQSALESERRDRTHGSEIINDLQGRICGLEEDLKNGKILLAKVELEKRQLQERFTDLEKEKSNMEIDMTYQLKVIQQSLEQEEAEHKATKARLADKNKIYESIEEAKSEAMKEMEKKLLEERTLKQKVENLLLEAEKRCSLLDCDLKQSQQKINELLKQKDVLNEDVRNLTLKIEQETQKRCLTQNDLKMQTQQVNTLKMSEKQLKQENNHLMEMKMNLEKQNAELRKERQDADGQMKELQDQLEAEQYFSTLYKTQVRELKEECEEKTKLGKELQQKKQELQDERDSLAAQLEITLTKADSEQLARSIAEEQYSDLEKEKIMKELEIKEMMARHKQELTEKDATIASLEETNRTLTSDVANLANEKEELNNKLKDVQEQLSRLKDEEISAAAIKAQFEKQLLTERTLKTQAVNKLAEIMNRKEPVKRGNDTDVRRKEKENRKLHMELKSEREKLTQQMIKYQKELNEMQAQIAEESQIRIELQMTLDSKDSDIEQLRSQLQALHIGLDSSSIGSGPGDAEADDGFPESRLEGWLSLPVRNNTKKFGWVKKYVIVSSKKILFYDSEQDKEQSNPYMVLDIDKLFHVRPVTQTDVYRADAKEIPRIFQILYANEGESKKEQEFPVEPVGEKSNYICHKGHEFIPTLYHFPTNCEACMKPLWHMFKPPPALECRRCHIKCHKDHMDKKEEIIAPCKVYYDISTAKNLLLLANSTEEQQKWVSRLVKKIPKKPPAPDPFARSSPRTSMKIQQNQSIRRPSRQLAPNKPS
Where [1] appears, read: read-out: % inhibition (ROCK1) 1 uM, 1 uM.
Where [2] appears, read: read-out: % inhibition (ROCK2) 1 uM, 1 uM.
[3] abbreviates: read-out: % inhibition (ROCK1) 1 uM.
The mark [4] stands for this setting: read-out: % inhibition (ROCK2) 1 uM.

As a reminder, the Ki is the dissociation constant of the complex between target and ligand, obtained from inhibition or displacement. Low values mean higher affinity, high ones lower affinity. By inhibition is commonly meant the change of the read-out against control, counted positive when it falls.

Where two headings read alike, the source gives them in different places.

LIMK1, sequence (P53667 whole entry): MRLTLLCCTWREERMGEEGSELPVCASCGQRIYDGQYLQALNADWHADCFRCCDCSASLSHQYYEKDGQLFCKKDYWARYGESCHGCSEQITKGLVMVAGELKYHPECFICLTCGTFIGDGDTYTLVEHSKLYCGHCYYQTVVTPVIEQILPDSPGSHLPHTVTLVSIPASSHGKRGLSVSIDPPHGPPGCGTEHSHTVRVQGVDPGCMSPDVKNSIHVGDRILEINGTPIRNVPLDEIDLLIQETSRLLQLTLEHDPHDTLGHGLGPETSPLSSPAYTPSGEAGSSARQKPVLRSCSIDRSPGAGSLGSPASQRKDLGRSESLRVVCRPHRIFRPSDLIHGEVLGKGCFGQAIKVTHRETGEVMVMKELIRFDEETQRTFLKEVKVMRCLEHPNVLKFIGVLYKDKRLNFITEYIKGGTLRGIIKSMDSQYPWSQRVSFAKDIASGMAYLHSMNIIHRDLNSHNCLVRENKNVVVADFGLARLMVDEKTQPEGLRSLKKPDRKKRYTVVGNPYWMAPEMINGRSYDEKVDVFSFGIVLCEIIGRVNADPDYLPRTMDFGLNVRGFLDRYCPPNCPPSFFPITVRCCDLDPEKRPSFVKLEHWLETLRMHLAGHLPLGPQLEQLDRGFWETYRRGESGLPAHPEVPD

Regarding `Cc1c[nH]c2ncnc(C3=CCN(C(=O)Nc4cccc(Oc5cccc(OCc6ccccc6)c5)c4)CC3)c12` [Compound 211, N-(3-(3-(benzyloxy)phenoxy)phenyl)-4-(5-methyl-7H-pyrrolo[2,3-d]pyrimidin-4-yl)-3,6-dihydropyridine-1(2H)-carboxamide], the results for the Ki on LIMK1 and on LIMK2 were 103 nM and 466 nM, respectively. Further, the inhibition at 1 µM on ROCK1 (setting [1]) came to 5%; at ROCK2 (setting [2]), 3%.

Regarding `Cc1c[nH]c2ncnc(C3=CCN(C(=O)Nc4cccc(C(=O)N5CCN(S(C)(=O)=O)CC5)c4)CC3)c12` [Compound 172, 4-(5-methyl-7H-pyrrolo[2,3-d]pyrimidin-4-yl)-N-[3-(4-methylsulfonylpiperazine-1-carbonyl)phenyl]-3,6-dihydro-2H-pyridine-1-carboxamide], the Ki at LIMK1 was determined as 1080 nM; on LIMK2, 2540 nM. In addition, the inhibition at 1 µM was determined as 88% on ROCK1 (setting [1]) and 78% on ROCK2 (setting [2]).

As for `Cc1c[nH]c2ncnc(C3=CCN(C(=O)Nc4cccc(OCCN5CCN(C)CC5)c4)CC3)c12` [Compound 184, 4-(5-methyl-7H-pyrrolo[2,3-d]pyrimidin-4-yl)-N-(3-(2-(4-methylpiperazin-1-yl)ethoxy)phenyl)-3,6-dihydropyridine-1(2H)-carboxamide], the results for the inhibition constant (Ki) on LIMK1 and at LIMK2 were 710 nM and 1470 nM, respectively. The inhibition at 1 µM on ROCK1 (setting [1]) worked out at 87%; at ROCK2 (setting [2]), 78%.

As to `Cc1c[nH]c2ncnc(C3=CCN(C(=O)Nc4cccc(Oc5cccnc5)c4)CC3)c12` [Compound 208, 4-(5-methyl-7H-pyrrolo[2,3-d]pyrimidin-4-yl)-N-(3-(pyridin-3-yloxy)phenyl)-3,6-dihydropyridine-1(2H)-carboxamide], the values for the inhibition constant (Ki) on LIMK1 and on LIMK2 were 37.3 nM and 7.57 nM, respectively. The inhibition at 1 µM at ROCK1 (setting [1]) stood at 91%; at ROCK2 (setting [2]), 72%.

In turn, `O=C(NC1CCCCC1)N1CC=C(c2ncnc3[nH]cc(C4CC4)c23)CC1` [Compound 83, N-Cyclohexyl-4-(5-cyclopropyl-7H-pyrrolo[2,3-d]pyrimidin-4-yl)-3,6-dihydropyridine-1(2H)-carboxamide] displayed a Ki on LIMK1 of 90.9 nM. Moreover, the inhibition at 1 µM is 6% on ROCK1 (setting [1]) and -4% on ROCK2 (setting [2]).

Turning to `CN1CCc2[nH]c3ncnc(C4=CCN(C(=O)Nc5cccc(Cl)c5)CC4)c3c2C1` [Compound 161, N-(3-Chlorophenyl)-4-(6-methyl-6,7,8,9-tetrahydro-5H-pyrido[3′,4′:4,5]pyrrolo[2,3-d]pyrimidin-4-yl)-3,6-dihydropyridine-1(2H)-carboxamide], the values for the Ki on LIMK1 and on LIMK2 were 1170 nM and 2440 nM, respectively. Also, the inhibition at 1 µM at ROCK1 (setting [3]) was 1%; at ROCK2 (setting [4]) it was -9%.

`Cc1c[nH]c2ncnc(C3=CCN(C(=O)Nc4cccc(OCC5CCN(C)CC5)c4)CC3)c12` [Compound 195, 4-(5-methyl-7H-pyrrolo[2,3-d]pyrimidin-4-yl)-N-(3-((1-methylpiperidin-4-yl)methoxy)phenyl)-3,6-dihydropyridine-1(2H)-carboxamide]: the Ki was 174 nM at LIMK1 and 189 nM on LIMK2. In addition, the inhibition at 1 µM came to 99% on ROCK1 (setting [1]) and 93% at ROCK2 (setting [2]).

In the case of `Cc1c[nH]c2ncnc(C3=CCN(C(=O)Nc4ccc(Oc5ccccc5)cc4)CC3)c12` [Compound 28, 4-(5-Methyl-7H-pyrrolo[2,3-d]pyrimidin-4-yl)-N-(4-phenoxy-phenyl)-3,6-dihydropyridine-1(2H)-carboxamide], the values for the Ki at LIMK1 and at LIMK2 were 34.5 nM and 43.6 nM, respectively. Besides, the “% inhibition (ROCK1) 1 uM” value at ROCK1 (1 uM) was found to be 76%. Also, the “% inhibition (ROCK2) 1 uM” value on ROCK2 (1 uM) stood at 35%.

Consider `CNC(=O)c1cccc(Oc2cccc(NC(=O)N3CC=C(c4ncnc5[nH]cc(C)c45)CC3)c2)c1` [Compound 222, 4-(5-methyl-7H-pyrrolo[2,3-d]pyrimidin-4-yl)-N-(3-(3-(methylcarbamoyl)phenoxy)phenyl)-3,6-dihydropyridine-1(2H)-carboxamide], for which the figures for the inhibition constant (Ki) on LIMK1 and on LIMK2 were 4.59 nM and 2.96 nM, respectively. Further, the inhibition at 1 µM on ROCK1 (setting [1]) was 66%; on ROCK2 (setting [2]), 48%.

With `O=C(Nc1cccc(-c2ccccc2)c1)N1CC=C(c2ncnc3[nH]c4c(c23)CCC4)CC1` [Compound 123, N-([1,1′-Biphenyl]-3-yl)-4-(5,6,7,8-tetrahydrocyclopenta[4,5]pyrrolo[2,3-d]pyrimidin-4-yl)-3,6-dihydropyridine-1(2H)-carboxamide], the Ki on LIMK1 amounted to 11.5 nM; on LIMK2, 16.2 nM. The inhibition at 1 µM at ROCK1 (setting [3]) was 10%; on ROCK2 (setting [4]), 1%.

On to `Cc1c[nH]c2ncnc(C3=CCN(C(=O)Nc4cccc(-n5ccnc5)c4)CC3)c12` [Compound 24, N-(3-(1H-Imidazol-1-yl)phenyl)-4-(5-methyl-7H-pyrrolo[2,3-d]pyrimidin-4-yl)-3,6-dihydropyridine-1(2H)-carboxamide], for which the inhibition at 1 µM at ROCK1 (setting [3]) was determined as 40%; on ROCK2 (setting [4]), 25%.

Consider `Cc1c[nH]c2ncnc(C3=CCN(C(=O)Nc4cccc(Oc5cccc(F)c5)c4)CC3)c12` [Compound 200, N-(3-(3-fluorophenoxy)phenyl)-4-(5-methyl-7H-pyrrolo[2,3-d]pyrimidin-4-yl)-3,6-dihydropyridine-1(2H)-carboxamide], for which the figures for the Ki at LIMK1 and at LIMK2 were 46.2 nM and 9.83 nM, respectively. The inhibition at 1 µM on ROCK1 (setting [1]) worked out at 35%; at ROCK2 (setting [2]) it was 13%.

Turning to `Cc1c[nH]c2ncnc(C3=CCN(C(=O)Nc4ccc5c(c4)OCO5)CC3)c12` [Compound 14, N-(Benzo[d][1,3]dioxol-5-yl)-4-(5-methyl-7H-pyrrolo[2,3-d]pyrimidin-4-yl)-3,6-dihydropyridine-1(2H)-carboxamide], the figures for the inhibition at 1 µM on ROCK1 (setting [3]) and on ROCK2 (setting [4]) were 79% and 59%, respectively.

As for `CC1=CC(C)=[N+]2C1=Cc1ccc(CCC(=O)NCCCOc3cccc(-c4cccc(NC(=O)N5CC=C(c6ncnc7[nH]cc(C8CC8)c67)CC5)c4)c3)n1[B-]2(F)F` [Compound 168, N-(3′-(3-(3-(5,5-Difluoro-7,9-dimethyl-5H-dipyrrolo[1,2-c:2′,1′-f][1,3,2]diazaborinin-3-yl)propanamido)propoxy)-[1,1′-biphenyl]-3-yl)-4-(5-isopropyl-7H-pyrrolo[2,3-d]pyrimidin-4-yl)-3,6-dihydropyridine-1(2H)-carboxamide], the “% inhibition (ROCK1) 1 uM” value on ROCK1 was 2%. Besides, the “% inhibition (ROCK2) 1 uM” value at ROCK2 stood at 20%.

With `Cc1c[nH]c2ncnc(C3=CCN(C(=O)Nc4ccc(Cl)c(C(F)(F)F)c4)CC3)c12` [Compound 12, N-(4-Chloro-3-(trifluoromethyl)phenyl)-4-(5-methyl-7H-pyrrolo[2,3-d]pyrimidin-4-yl)-3,6-dihydropyridine-1(2H)-carboxamide], the inhibition at 1 µM at ROCK1 (setting [1]) is 79%; on ROCK2 (setting [2]), 69%.

In the case of `CC1=CC(C)=[N+]2C1=Cc1ccc(CCC(=O)NCCCOc3cccc(-c4cccc(NC(=O)N5CC=C(c6ncnc7[nH]cc(C)c67)CC5)c4)c3)n1[B-]2(F)F` [Compound 169, N-(3′-(3-(3-(5,5-difluoro-7,9-dimethyl-5H-dipyrrolo[1,2-c:2′,1′-f][1,3,2]diazaborinin-3-yl)propanamido)propoxy)-[1,1′-biphenyl]-3-yl)-4-(5-methyl-7H-pyrrolo [2,3-d]pyrimidin-4-yl)-3,6-dihydropyridine-1(2H)-carboxamide], at ROCK1, the “% inhibition (ROCK1) 1 uM” value is on record as 10%.
